Measured values taken from patent US20020059032A1, “Rational selection of putative peptides from identified nucleotide or peptide sequences” (priority 1999, published 2002).

Columns and labels:
HeLa cells = assay: Binding test with HeLa cells
Method: Studies of the Bonding of Labelled Agonists on the HeLa Cell Line
The cells are cultured in a DMEM medium supplemented with 10% foetal calf serum, 0.5% of antibiotics (penicillin/streptomycin) and 0.5% of glutamine.
24 to 48 hours before experimentation, the cells are replicated in 24-well plates with approximately 100,000 cells per well and per ml.
The bonding studies are carried out with a BindH buffer
For the experiment, the medium is removed and the cells washed twice with 1 ml of buffer. The reaction medium (500 μl) containing the labelled agonist is added into each well in the presence or absence of the cold homologous agonist and the plates are incubated for one hour at 37° C.
The reaction is stopped by removal of the reaction volume and the wells are rinsed twice with 1 ml of BindH with 20% BSA.
The cells are lysed with 500 μl of 1N soda for 20 minutes at ambient temperature and the radioactivity associated with the lysate is evaluated using a gamma counter.

Jurkat T cells = assay: Binding test with Jurkat T cells; design: species or system human
Method: Bonding of Radiolabelled Agonists to Jurkat T cells
Culture Conditions of the Cells of the Jurkat T Human Lymphocytic Line
The Jurkat cells are cultured in an RPMI 1640 medium supplemented with foetal calf serum (10% volume/volume) and antibiotics (50 U/ml of penicillin and 50 μg/ml of streptomycin) serum in a humid incubator at 37° C. under an atmosphere of 5% CO2 in air.
The cells are obtained by centrifugation (514 g, 5 minutes), then are washed twice in a standard medium containing: 98 mM of NaCl; 6 mM of KCl; 2.5 mM of NaH2PO4; 1.5 mM of CaCl2, 1 mM of MgCl2, 5 mM of Na-pyruvate; 5 mM of Na-fumarate; 5 mM of Na-glutamate; 2 mM of glutamine; 11.5 mM of glucose; 24.5 mM of Hepes (N-[2-hydroxyethyl]piperazine-N′-[2-ethane sulfonic acid]); 0.5 g/l of bacitracin; 0.1 g/l of soya bean trypsin inhibitor, pH 7.4
Experiments with agonist bonds labelled with iodine 125 (about 50 picomolars) are carried out at 37° C. under agitation for 45-60 minutes in a final volume of 0.5 ml of standard medium containing 2×10^6 cells (4×10^6 cells/ml) and in the presence or absence of competitors. The non-specific bond is evaluated in the presence of a micromolar concentration of cold homologous peptide.

[1] = test system: different rat organ membranes; assay: Binding test with different rat organ membranes
Method: (§1) The membranes are placed in a buffer (50 mM of Tris-HCl, 5 mM of MgCl2 and 0.1 g/l of bacitracin) at the desired protein concentration (iodized CCK bond, 0.1 mg of protein/ml; iodized gastrin bond: 0.5 mg of proteins/ml). They are then incubated in the presence of a labelled ligand in a total volume of 500 μl (about 10 pM for the iodized CCK8, 20 pM for the iodized gastrin13), 50-80 minutes at 25° C., and in the presence or absence of cold agonists. The reaction is stopped with 3 ml of additional BSA buffer (20 g/l) at 4° C., the tubes are centrifuged at 10,000×g, the supernatant is drawn off and the radioactivity associated with the precipitate is evaluated with a γ counter.
(§2) Membrane Preparations of Different Rat Tissues and Organs
(§3) 1) The rats are sacrificed by rupturing their cervical vertebrae, and the different tissues are removed and washed several times in a large volume of NaCl at 9 per thousand.
(§4) The following steps are carried at 4° C.
(§5) 2) The tissues and organs are transferred, still separately, in a sucrose buffer containing:
(§6) They are then cut up carefully with the aid of fine scissors and crushed using an ultraturax apparatus. […]
(§7) 8) The protein content in the membrane suspensions is evaluated using a Bradford dosage device (BioRad, acording to the manufacturer's instructions). […]

rat brain membranes = assay: Binding test with rat brain membranes
Method: as §1, §2, §3, §4, §5, §6, §7

Substance	IC50 (HeLa cells) [µM]	Results, binding test with different rat organ membranes (positive/negative) [1]	IC50 (rat brain membranes) [µM]	Results, binding test with Jurkat T cells (positive/negative) (Jurkat T cells)
YFKIDNVKKARVQWA [Example 3, H-YFKIDNVKKARVQWA-NH2]	50	–	–	–
GQDSIEPVPGQK [Example 1, H-GQDSIEPVPGQK-NH2]	–	negative	–	negative
PLEPSGG [Example 4, H-PLEPSGG-NH2]	–	negative	–	–

Second part, led by results:

IC50 (HeLa cells) [µM]	Results, binding test with different rat organ membranes (positive/negative) [1]	IC50 (rat brain membranes) [µM]	Substance	Results, binding test with Jurkat T cells (positive/negative) (Jurkat T cells)
–	–	90	ELGRGPGPPLPERGA [Example 5, H-ELGRGPGPPLPERGA-NH2]	negative
–	–	90	YERNRQAAAANPENSRGK [Example 6, H-YERNRQAAAANPENSRGK-NH2]	negative
